# Target: T1, SHP2 (Homo sapiens, UniProt Q06124)
# T1 construct: endogenous in cells; host or cells: MV411 (MV4-11) leukemia cells
# T1 sequence (Q06124 1-593): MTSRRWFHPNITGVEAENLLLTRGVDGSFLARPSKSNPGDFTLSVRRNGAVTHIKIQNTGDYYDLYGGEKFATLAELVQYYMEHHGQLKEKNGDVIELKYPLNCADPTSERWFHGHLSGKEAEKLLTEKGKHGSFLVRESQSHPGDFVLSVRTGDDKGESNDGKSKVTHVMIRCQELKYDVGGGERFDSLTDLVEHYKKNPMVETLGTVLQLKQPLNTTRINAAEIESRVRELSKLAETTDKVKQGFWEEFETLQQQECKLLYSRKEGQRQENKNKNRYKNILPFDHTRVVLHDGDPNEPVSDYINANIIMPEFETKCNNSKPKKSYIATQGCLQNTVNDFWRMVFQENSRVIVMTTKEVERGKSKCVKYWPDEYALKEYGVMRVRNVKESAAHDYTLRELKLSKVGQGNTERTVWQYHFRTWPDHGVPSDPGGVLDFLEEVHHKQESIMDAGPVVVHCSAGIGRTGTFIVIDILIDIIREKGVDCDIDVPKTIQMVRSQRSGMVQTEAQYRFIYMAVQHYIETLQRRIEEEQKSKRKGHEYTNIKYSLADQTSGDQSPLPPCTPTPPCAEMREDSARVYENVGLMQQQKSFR
# Experiment: SHP2 degradation in MV411 cells (Western blot, SHP-2 antibody)
# Assay type: cell-based
# Conditions: MV 411 cells, 24 hours with compound, SHP2 protein level by Western blot
# Description: Reagent: complete DMEM medium, Gibco products. Fetal bovine serum, manufactured by ThermoFisher. Trypsin, manufactured by ThermoFisher. The SHP-2 antibody is produced by CST.
# Cell line, MV 411, the blast cells of patients with bi-phenotypic B-myelomonocytic leukemia, was established by Rovera.
# Measuring method: took the cells growing in the logarithmic phase, collected and suspended the cells in DMEM containing 10% fetal calf serum, gently blowed and beated the cells into single cell suspension by using a pipette, and counted the living cells under a microscope. […] Then cultured for 24 hours. All cells were collected and washed with PBS, lysed with RIPA lysate and collected into a 1.7 ml tube. […] metal bath for 5 minutes to fully denature the protein. 100V constant voltage electrophoresis after Western condensation and loading, stopped when bromophenol blue band reached the end point. The cellulose acetate membrane is transferred by a wet method, 45 minutes at a constant flow of 300-500 mA, 5% BSA is used for blocking for 1-2 hours at room temperature. Primary antibody of 1:500-1:8000 were used for incubation at 25° C. for 40 minutes and then washed three times. Secondary antibody was used for incubation for 15-40 min at room temperature. The proteins were detected using ultrasensitive ECL luminophores such as Enlight, using an X-Ray film automatic developing machine. See the statistical tables below, and FIGS. 1 and 2 for test results.
# Effective Concentration of the Compound of the Invention in the Cell Line for Inhibiting SHP2
row,SMILES,DC50 [nM]
1,CCOc1cc(O)c(C(=O)/C=C/c2ccc(N3CCN(CCOCCOCCOc4cccc5c4C(=O)N(C4CCC(=O)N(COC(=O)C(C)(C)C)C4=O)C5=O)CC3)cc2Cl)cc1CN1CCCC(n2c(=O)[nH]c3ccccc32)C1 (stereo not shown) [TDC. 2020],13
2,CCOc1cc(O)c(C(=O)/C=C/c2ccc(NCCOCCOCCNc3cccc4c3C(=O)N(C3CCC(=O)NC3=O)C4=O)cc2Cl)cc1CN1CCNCC1 (stereo not shown) [TDC.2002],336
3,CCOc1cc(O)c(C(=O)/C=C/c2ccc(NCCOCCOCCNc3cccc4c3C(=O)N(C3CCC(=O)NC3=O)C4=O)cc2Cl)cc1CN1CCC[C@H]1CO (stereo partly shown) [TDC.2007],125
4,CCOc1cc(O)c(C(=O)/C=C/c2ccc(N3CCN(CCOCCOCCOc4cccc5c4C(=O)N(C4CCC(=O)NC4=O)C5=O)CC3)cc2Cl)cc1CN1CCCC(n2c(=O)[nH]c3ccccc32)C1 (stereo not shown) [TDC.2009],16
5,CCOc1cc(O)c(C(=O)/C=C/c2ccc(NCCOCCOCCNc3cccc4c3C(=O)N(C3CCC(=O)N(C(C)OC(=O)CC)C3=O)C4=O)cc2Cl)cc1CN1CCN(C)CC1 (stereo not shown) [TDC.2016],356
6,CCOc1cc(O)c(C(=O)/C=C/c2ccc(NCCOCCOCCOCCOc3cccc4c3C(=O)N(C3CCC(=O)NC3=O)C4=O)cc2Cl)cc1CN1CCC[C@H]1C(N)=O (stereo partly shown) [TDC.2018],142
7,C=C/C(OCCOCCOCCN1CCN(c2ccc(/C=C/C(=O)c3cc(CN4CCC[C@H]4COC)c(OCC)cc3O)c(Cl)c2)CC1)=C1\C(=C)C(=O)N(C2CCC(=O)NC2=O)C1=O (stereo partly shown) [TDC.2013],203
8,CCOc1cc(O)c(C(=O)/C=C/c2ccc(NCCOCCOCCOCCNc3cccc4c3C(=O)N(C3CCC(=O)NC3=O)C4=O)cc2Cl)cc1CN1CCC[C@H]1C(N)=O (stereo partly shown) [TDC.2001],128
9,CCOc1cc(O)c(C(=O)/C=C/c2ccc(NCCOCCOCCNc3cccc4c3C(=O)N(C3CCC(=O)NC3=O)C4=O)cc2Cl)cc1CN1CCN(C)CC1 (stereo not shown) [TDC.2005],321

# Results, then the compound that gave them:
row,DC50 [nM],SMILES
1,97,CCOc1cc(O)c(C(=O)/C=C/c2ccc(NCCOCCOCCCOCCNc3cccc4c3C(=O)N(C3CCC(=O)NC3=O)C4=O)cc2Cl)cc1CN1CCC=C(n2c(=O)[nH]c3ccccc32)C1 (stereo not shown) [TDC.2015]
2,120,CCOc1cc(O)c(C/C=C/c2ccc(N3CCN(C(=O)CCCCCC(=O)Nc4cccc5c4C(=O)N(C4CCC(=O)NC4=O)C5=O)CC3)cc2Cl)cc1CN1CCCC(n2c(=O)[nH]c3ccccc32)C1 (stereo not shown) [TDC.2004]
3,10,CCOc1cc(O)c(C(=O)/C=C/c2ccc(N3CCN(CCOCCOCCOc4cccc5c4C(=O)N(C4CCC(=O)NC4=O)C5=O)CC3)cc2Cl)cc1CN1CCC[C@@H]1CO (stereo partly shown) [TDC.2012]
4,102,CCOc1cc(O)c(C(=O)/C=C/c2ccc(N3CCN(CCOCCOCCOCCNc4cccc5c4C(=O)N(C4CCC(=O)NC4=O)C5=O)CC3)cc2Cl)cc1CN1CCCC(n2c(=O)[nH]c3ccccc32)C1 (stereo not shown) [TDC.2014]
5,81,CCOc1cc(O)c(C(=O)/C=C/c2ccc(N3CCN(CCOCCOCCOc4cccc5c4C(=O)N(C4CCC(=O)NC4=O)C5=O)CC3)cc2Cl)cc1CN1CCC=C(n2c(=O)[nH]c3ccccc32)C1 (stereo not shown) [TDC.2010]
6,183,CCOc1cc(O)c(C(=O)/C=C/c2ccc(NCCOCCOCCOc3cccc4c3C(=O)N(C3CCC(=O)NC3=O)C4=O)cc2Cl)cc1CN1CCC[C@H]1COC (stereo partly shown) [TDC.2017]
7,445,CCOc1cc(O)c(C(=O)/C=C/c2ccc(NCCOCCOCCNc3cccc4c3C(=O)N(C3CCC(=O)NC3=O)C4=O)cc2Cl)cc1CN1CCOCC1 (stereo not shown) [TDC.2006]
8,52,CCOc1cc(O)c(C/C=C/c2ccc(N3CCN(C(=O)CCCCCCC(=O)Nc4cccc5c4C(=O)N(C4CCC(=O)NC4=O)C5=O)CC3)cc2Cl)cc1CN1CCC=C(n2c(=O)[nH]c3ccccc32)C1 (stereo not shown) [TDC.2003]
9,215,CCOc1cc(O)c(C(=O)/C=C/c2ccc(NCCOCCOCCNc3cccc4c3C(=O)N(C3CCC(=O)NC3=O)C4=O)cc2Cl)cc1CN1CCC[C@H]1COC (stereo partly shown) [TDC.2008]
10,138,CCOc1cc(O)c(C(=O)/C=C/c2ccc(N3CCN(CCOCCOCCOc4cccc5c4C(=O)N(C4CCC(=O)NC4=O)C5=O)CC3)cc2Cl)cc1CN1CCC[C@H]1C(N)=O (stereo partly shown) [TDC.2011]
